# Laboratory results published in patent publication US20150239833A1, “COMPOSITION, SYNTHESIS, AND USE OF NEW ARYLSULFONYL ISONITRILES” (DUQUESNE UNIVERSITY OF THE HOLY GHOST, priority 2014, published 2015).
row,melting point,SMILES
1,63 °C,"[C-]#[N+]CS(=O)(=O)c1ccc(F)cc1 [compound 3e, 1-fluoro-4-((isocyanomethyl)sulfonyl)benzene]"
2,109 to 110 °C (dec.),"[C-]#[N+]CS(=O)(=O)c1ccc(Cl)cc1 [compound 3f, 1-Chloro-4-((isocyanomethyl)sulfonyl)benzene]"
3,82 to 83 °C,"[C-]#[N+]CS(=O)(=O)c1cc(Cl)cc(Cl)c1 [compound 3h, 1,3-dichloro-5-((isocyanomethyl)sulfonyl)benzene]"
4,90 to 91 °C,"[C-]#[N+]CS(=O)(=O)c1c(OC)cccc1OC [compound 3p, 2-((Isocyanomethyl)sulfonyl)-1,3-dimethoxybenzene]"

# Second part, the compound before the results:
row,SMILES,melting point
1,"[C-]#[N+]CS(=O)(=O)c1ccccc1 [compound 3a, ((Isocyanomethyl)sulfonyl)benzene]",89 to 90 °C
2,"[C-]#[N+]CS(=O)(=O)c1ccc(C)cc1 [compound 3b, 1-((isocyanomethyl)sulfonyl)-4-methylbenzene]",112 to 113 °C
3,"[C-]#[N+]CS(=O)(=O)c1ccc2ccccc2c1 [compound 3d, 2-((isocyanomethyl)sulfonyl)naphthalene]",104 to 105 °C
4,"[C-]#[N+]CS(=O)(=O)c1ccc(OC)c(OC)c1 [compound 3k, 4-((isocyanomethyl)sulfonyl)-1,2-dimethoxybenzene]",101 to 102 °C
